Experiments:
HLA-A2 = HLA-A2 (Homo sapiens, UniProt P04439, D140Y/D185E/D98H/E176V/E277Q/G131W/G231S/I119V/I121R/I166T/I218V/L300P/L318F/N151K/N90K/P208A/P217A/Q86G/Q94H/R138H/R169H/T345S); experiment: T2 cell binding assay (HLA class I expression on T2 cells, confocal microscopy); format: cell-based; settings: for binding capacity in T2 cell binding assay (in words): T2 cells co-incubated with peptide 24 hours; for T2 binding: T2 cells co-incubated with peptide (0.3, 3, 30 μg/ml) 24 hours, HLA class I surface expression; for T2 binding: key: +++: high binding capacity; ++: moderate binding capacity; +: low binding capacity
Experimental: The peptides obtained by […] method and the VH CDR1 and VL CDR2 region peptides were subject to T2 cell binding assay. T2 cells were co-incubated with each peptides in different concentrations (0.3 μg/ml, 3 μg/ml and 30 μg/ml) for 24 hours and then co-incubated with anti-human MHC class I antibodies. The expression profile of HLA class I molecules on the surface of T2 cells was analyzed by confocal microscopy. […] They were synthesized together with the CDR peptides of the anti-idiotype antibody for screening CTL epitope peptides.

CD4 T cells = experiment: BrdU cell proliferation assay after magnetic bead sorting of CD4 T cells; format: cell-based, human; settings: reacting cells sorted for CD4 T cells by magnetic beads
Experimental: All the CDR peptides of anti-idiotype antibody 6B11 (6 peptides) were synthesized artificially. The peptides were screened for Th epitope peptides by cell proliferation assay. Anti-idiotype antibody 6B11-CTLs stimulated for one period were used as reacting cells. DCs loaded with anti-idiotype antibodies and peptides respectively were used as stimulating cells. The reacting cells and the stimulating cells (in the ratio of 10:1) were co-incubated at 37° C. under 5% CO2 for 120 hours and then subject to BrdU ELISA cell proliferation assay. Each well contained 100 μl AIM-V culture medium and 1×10^5 anti-idiotype antibody 6B11-CTLs. Within the last 2 hours during stimulation, 10 μl BrdU labeling solution was added into each well and the fluid in the wells was removed. The cells were dried at 60° C. for 1 hour. 200 μl of FixDenat solution was added into each well. The reaction continued for 30 minutes at 37° C. for fixing DNA in the lymphocytes. Finally, 100 μl BrdU monoclonal antibody was added into each well for 90 minutes. The absorption value at 450 nm was read by an automatic microplate reader after substrate chromogenic reaction for detecting the proliferation of the cells. The group of DCs without loading and the group of phytohaemagglutinin (PHA) were used as negative and positive control respectively. […] Other peptides could not stimulate the proliferation of the reacting cells.
For further analyzing the proliferation of the cells, stimulating cells were blocked by anti-human MHC class II antibodies, for evaluating the effect of Th epitope peptides. Firstly, the optimal application concentration of MHC class II antibodies was determined by experiments to be 1:20 dilution (FIG. 3). […] Other peptides could not trigger cell proliferation, no matter whether MHC class II antibodies were applied or not (FIG. 4). […] The reacting cells were subject to magnetic bead sorting of CD4 T cells.

[1] = system: anti-idiotype antibody 6B11-CTLs (reacting cells); experiment: BrdU ELISA cell proliferation assay, 6B11-CTLs stimulated by loaded DCs; format: cell-based, human
Experimental: Peripheral blood was drawn from HLA-A2 healthy human subjects. After EDTA anti-coagulation treatment, peripheral blood monocytes were isolated using Ficoll lymphocyte isolation 1×10^7 monocytes/well and AIM-V culture medium (containing 5% human AB serum) was added to 1 ml. The cells were incubated at 37° C. under 5% CO2 for 2 hours. Non-adherent cells were drawn and removed as lymphocytes and stored in liquid nitrogen for further use. The adherent cells were monocytes.
The monocytes isolated from said 6-well plates were added with 2 ml AIM-V culture medium (containing 5% human AB serum)/well. Recombinant human granulocyte-macrophage colony-stimulating factor (rh GM-CSF) and recombinant human interleukin-4 (rh IL-4) were added simultaneously both to a final concentration of 1000 U/ml, for induced incubation. On Day 4, 1 ml AIM-V culture medium (containing 5% human AB serum) was supplemented, and rh GM-CSF and rh IL-4 of the same concentration as mentioned above were also supplemented. On Day 6, 1 ml AIM-V culture medium (containing 5% human AB serum) was supplemented again. At the same time, recombinant human tumor necrosis factor-α (rh TNF-α), recombinant human α-interferon (rh IFN-α) and recombinant human interleukin-6 (rh IL-6) were added, all to a final concentration of 1000 U/ml, and prostaglandin E2 (PGE2) was added to a final concentration of 1 μg/ml. Co-incubation lasted 24 hours for inducing mature DCs.
On Day 4 during incubation of DCs, the culture medium, rh GM-CSF and rh IL-4 were supplemented. At the same time, anti-idiotype antibody 6B11 was added to a final concentration of 40 μg/ml for loading. The loaded cells were stored as stimulating cells for further use.
Mature DCs induced were harvested, washed and adjusted to a concentration of 1×10^6 cells/ml. Six CDR peptides (SEQ ID NOs: 1-6, see Table 1, artificially synthesized) in a final concentration of 30 μg/ml respectively, or each peptide of 30 μg/ml together with keyhole limpet hemocyanin (KLH) of 5 μg/ml were added for loading. The loaded cells were stored as stimulating cells for further use.
The freeze-stored autologous lymphocytes were stimulated by DCs loaded with anti-idiotype antibody 6B11 (anti-Id DCs), to obtain CTLs specific to anti-idiotype antibody 6B11 (6B11-CTLs). One period consists of 7 days. On Day 3 of every period, 10 U/ml recombinant human interleukin-2 (rh IL-2) was supplemented. Finally, anti-idiotype antibody 6B11-CTLs were obtained after a one- or three-period stimulation.
All the CDR peptides of anti-idiotype antibody 6B11 (6 peptides) were synthesized artificially. The peptides were screened for Th epitope peptides by cell proliferation assay. Anti-idiotype antibody 6B11-CTLs stimulated for one period were used as reacting cells. DCs loaded with anti-idiotype antibodies and peptides respectively were used as stimulating cells. The reacting cells and the stimulating cells (in the ratio of 10:1) were co-incubated at 37° C. under 5% CO2 for 120 hours and then subject to BrdU ELISA cell proliferation assay. Each well contained 100 μl AIM-V culture medium and 1×10^5 anti-idiotype antibody 6B11-CTLs. Within the last 2 hours during stimulation, 10 μl BrdU labeling solution was added into each well and the fluid in the wells was removed. The cells were dried at 60° C. for 1 hour. 200 μl of FixDenat solution was added into each well. The reaction continued for 30 minutes at 37° C. for fixing DNA in the lymphocytes. Finally, 100 μl BrdU monoclonal antibody was added into each well for 90 minutes. The absorption value at 450 nm was read by an automatic microplate reader after substrate chromogenic reaction for detecting the proliferation of the cells. The group of DCs without loading and the group of phytohaemagglutinin (PHA) were used as negative and positive control respectively. […] Other peptides could not stimulate the proliferation of the reacting cells. […]

Substance	binding capacity in T2 cell binding assay (in words) (HLA-A2)	T2 binding (HLA-A2)	proliferation of sorted CD4 T cells (CD4 T cells)	proliferation after blocking by MHC class II antibodies ([1]; anti-human MHC class II antibodies 1:20 dilution)	proliferation of reacting cells 6B11-CTLs ([1]; stimulating DCs loaded with peptide 30 μg/ml or 6B11 40 μg/ml, 120 hours, BrdU, A450)
IALITTKIA [predicted 9-mer from VH CDR3]	low binding capacity	+			
LITTKIAWY [predicted 9-mer from VH CDR3]	low binding capacity	+			
NNKYYNTAL [predicted 9-mer from VH CDR2]	high binding capacity	+++			
VHSNGNTYL [predicted 9-mer from VL CDR1]	low binding capacity	+			
phytohaemagglutinin [PHA, reference compound]			could trigger the proliferation	blocked dramatically	significant proliferation
